Here are results for 2 molecules from patent US5698672A, “Synthetic calcitonin mimetics” (ZymoGenetics, Inc., priority 1995, dated 1997).

For orientation: pEC50 means the negative decadic logarithm of the EC50, by convention in mol/L.

Assay [1] concerns KZ10-20-48 (BHK 570 cells with CRE-luciferase reporter). The assay can be described thus: CRE-luciferase induction in BHK/KZ10-20-48 cells. The assay is classed as cell-based, hamster. The following applies: clone KZ10-20-48; 25 mM forskolin, 4 hours; range 15-25 fold.
In another assay the target is human glucagon receptor (Homo sapiens, UniProt P47871). The note with it: KZ10-20-48/pLJ6-4-25.
Sequence of human glucagon receptor (P47871 26-477): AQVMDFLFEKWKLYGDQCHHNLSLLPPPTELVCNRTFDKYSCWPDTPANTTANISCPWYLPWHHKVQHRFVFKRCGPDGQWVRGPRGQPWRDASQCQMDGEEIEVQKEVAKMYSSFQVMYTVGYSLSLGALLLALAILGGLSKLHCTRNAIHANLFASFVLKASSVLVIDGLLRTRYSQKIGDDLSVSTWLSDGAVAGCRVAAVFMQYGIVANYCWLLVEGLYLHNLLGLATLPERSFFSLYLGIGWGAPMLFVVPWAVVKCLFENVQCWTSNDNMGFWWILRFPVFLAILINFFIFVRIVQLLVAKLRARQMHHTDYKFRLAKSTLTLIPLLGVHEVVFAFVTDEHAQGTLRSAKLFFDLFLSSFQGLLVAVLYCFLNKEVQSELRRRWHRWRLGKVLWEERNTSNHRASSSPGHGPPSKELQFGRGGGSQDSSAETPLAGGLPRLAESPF
Assay [2] deals with KZ10-20-48/Zem 228 (calcitonin receptor-negative BHK cells). As to the kind of experiment: CRE-luciferase induction in receptor-negative KZ10-20-48/Zem 228 cells. The note with it: Mesocricetus auratus, read-out: EC50, CRE-luciferase induction.
Assay [3] deals with hamster calcitonin receptor (Mesocricetus auratus, UniProt A0A3Q0D7K7). The assay can be described thus: CRE-luciferase induction in Boris/KZ10-3 cells (hamster calcitonin receptor).
Sequence of hamster calcitonin receptor (A0A3Q0D7K7 entry or part of it): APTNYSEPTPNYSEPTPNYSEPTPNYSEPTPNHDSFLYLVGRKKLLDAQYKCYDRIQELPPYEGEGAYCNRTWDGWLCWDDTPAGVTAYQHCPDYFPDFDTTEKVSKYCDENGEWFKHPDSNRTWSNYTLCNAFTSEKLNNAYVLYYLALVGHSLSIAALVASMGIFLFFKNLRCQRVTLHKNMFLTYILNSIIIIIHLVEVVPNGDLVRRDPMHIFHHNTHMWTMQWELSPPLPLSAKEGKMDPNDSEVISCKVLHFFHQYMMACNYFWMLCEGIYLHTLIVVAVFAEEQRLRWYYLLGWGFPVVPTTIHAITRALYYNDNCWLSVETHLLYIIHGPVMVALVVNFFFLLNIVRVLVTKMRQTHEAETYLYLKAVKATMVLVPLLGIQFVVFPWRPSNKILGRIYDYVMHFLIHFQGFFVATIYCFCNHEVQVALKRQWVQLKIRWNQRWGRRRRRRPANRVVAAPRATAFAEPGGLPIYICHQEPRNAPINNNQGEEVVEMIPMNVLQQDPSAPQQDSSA
The target of assay [4] is T1, human calcitonin receptor (Homo sapiens, UniProt P30988).
T1 construct: expressed in transfected cells; host or cells: BHK 570 derivative KZ10-20-48 (clone Hollex-1)
T1 sequence (P30988 25-474): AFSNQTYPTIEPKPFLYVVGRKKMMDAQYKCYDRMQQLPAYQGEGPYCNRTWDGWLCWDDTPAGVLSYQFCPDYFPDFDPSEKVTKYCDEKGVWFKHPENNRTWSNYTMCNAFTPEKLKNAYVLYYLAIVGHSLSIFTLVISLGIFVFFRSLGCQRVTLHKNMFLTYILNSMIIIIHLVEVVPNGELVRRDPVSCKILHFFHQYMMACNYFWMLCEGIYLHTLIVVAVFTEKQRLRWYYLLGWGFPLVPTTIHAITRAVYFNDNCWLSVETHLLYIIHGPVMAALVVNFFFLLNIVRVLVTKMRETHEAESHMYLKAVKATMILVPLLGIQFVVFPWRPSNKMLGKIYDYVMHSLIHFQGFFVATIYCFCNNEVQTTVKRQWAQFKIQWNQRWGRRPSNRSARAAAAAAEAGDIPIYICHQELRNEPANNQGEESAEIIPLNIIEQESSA
As to the kind of experiment: CRE-luciferase induction in Hollex-1 cells (BHK, human calcitonin receptor). In kind it is cell-based.

Assay [5] concerns PTH induced bone resorption in mouse calvariae. As to the kind of experiment: Calvarial assay: PTH induced bone resorption, calcium release. In kind it is cell-based. The following applies: 1 nM PTH 1-34, 72 hours, neonatal mouse calvariae; read-out: Inhibition of Ca++ Release EC50. Here is the method:
Calvaria from 4-day old neonatal CD-1 mice (pregnant mice received from Charles River Laboratories, Wilmington, Mass.) were trimmed with fine-tipped scissors to leave the parietal regions, including the sagittal suture. These trimmed bones were placed singly per well into 6-well cell culture cluster plates (Costar, Pleasanton, Calif.) with 1 ml/well of growth medium (DMEM (BioWhittaker, Walkersville, Md.) with 4.5 g/L glucose, 0.29 mg/ml L-glutamine, 1 mM sodium pyruvate, 15% heat-inactivated horse serum, and antibiotics (penicillin-G […], streptomycin […], and neomycin […])), and rocked gently (RedRocker™, model PR50-115V) (Hoefer, San Francisco, Calif.) at 37° C. in a 5% CO2 humidified incubator for 24 hours preincubation.
Following incubation, medium was removed and replaced with 1.5 ml/well of growth medium containing 1 nM parathyroid hormone (PTH) 1-34 (Sigma) to stimulate bone resorption. For evaluation of the ability of synthetic calcitonin mimetics to inhibit PTH induced bone resorption, mimetic compounds in DMSO were added to the growth medium at concentrations ranging from […] (final assay concentration of DMSO less than or equal to 1%). In each experiment human calcitonin (0.02-20 nM, 0.2-2 nM preferred) was added to PTH treated bones as a positive control. […]

Another assay has as its system calcitonin receptor. As to the kind of experiment: CRE-luciferase assay for calcitonin mimetics (calcitonin receptor-positive cell line, Hollex-1 or Boris/KZ10). The assay is classed as cell-based. The note with it: calcitonin receptor-positive cells; cell line not given; read-out: CRE-Luciferase Induction EC50. An excerpt:
All synthetic calcitonin mimetics are subjected to an assay system that permits rapid identification of substances having selective calcitonin receptor activity on cells expressing the calcitonin receptor. Only those modifications which retain calcitonin-like activity, as assayed by the CRE-luciferase assay for example, are within the scope of this invention. The calcitonin receptor is a member of the G-protein receptor family and transduces signal via activation of adenylate cyclase, leading to elevation of cellular cAMP levels (Lin et al., Science 254:1022-24, 1991). This assay system exploits the receptor's ability to elevate cAMP levels as a way to detect other molecules, not calcitonin, that are able to stimulate the calcitonin receptor and initiate signal transduction.

Assay [6] deals with osteoclasts in mouse calvariae. As to the kind of experiment: Calvaria histology: osteoclast number and size. The following applies: PTH induced bone resorption in mouse calvariae. The assay is classed as cell-based. An excerpt: To confirm the findings in the calvarial bone resorption assay employing calcium release from culture mouse calvariae, selected bones were fixed in 10% neutral buffered formalin and demineralized in 5% formic acid with 5% formalin. The bones were dehydrated through an ascending series of ethanol concentrations, infiltrated in glycol methacrylate, and embedded using a JB-4 embedding kit (PolySciences, Warrington, Pa.) (Liu and Kalu, J. Bone Miner. Res., 5:973-82, 1990). Cross sections of calvariae cut at […] were obtained and stained for tartrate-resistant acid phosphatase (TRAP) activity and counterstained with methyl green and thionin for cell morphology (Liu and Kalu, J. Bone. Miner. Res. 1990, supra). osteoclasts were identified by TRAP stain, multinucleation, large cell size, and irregular cell shape. The number of osteoclasts were counted from endocranial and ectocranial bone surfaces and expressed as number/mm perimeter. The size of all the osteoclasts counted was also measured using a Bone Morphometry program (Lui and Kalu, supra.; Bain et al., J. Bone Miner. Res. 8:435-42, 1993). […] This PTH-induced increase was suppressed by treatment with human calcitonin.
Calcitonin mimetic compounds were evaluated in a similar fashion for their ability to suppress PTH-induced increases in osteoclast number and size. Cell toxicity (or death) was also evaluated morphologically. […]

pEC50: −log10 of the molar value. [ ]: non-standard residue; d: D form. Aib = CC(C)(N)C(=O)O

As to `C=C[C@@]1(C)CC(=O)[C@]2(O)[C@@]3(C)[C@@H](O)CCC(C)(C)[C@@H]3[C@H](O)[C@H](OC(C)=O)[C@@]2(C)O1` [forskolin], in assay [1], the “induction of CRE-luciferase” value stood at 20 fold. In addition, the induction of luciferase at human glucagon receptor was found to be 35 fold; in assay [3], 25 fold. The pEC50 in assay [2] is 6.22; in assay [4] it was 5.92.
Regarding “Ac-W[Aib]Q[Aib]IT[Aib]L[Aib]PQ[Aib]PF-OH [Synthetic 2807]”, the values for the pEC50 (in assay [5]; with calcitonin receptor) were 4.44 and 5.64, respectively. In addition, the Histology entry in assay [6] is recorded as “Inhibitory”.
